Values of other authors in patent publication US20070275008A1, “Synergistic Diabetic Phyto-Nutraceutical Composition” (priority 2006, published 2007).

Assays:
[1] = tested on: bacterial resistance mechanism against the berberine antimicrobial; details: in vitro; in the presence of 5′-MHC
[2] = tested on: hepatic toxicity induced by paracetamol, prednisolone and bromobenzene; details: mice; pre-treatment during ten days

| Structure (SMILES) | accumulation of berberine in the cells [1] | hepatic toxicity induced by paracetamol, prednisolone and bromobenzene [2] |
| --- | --- | --- |
| COc1cc([C@H]2Oc3cc(-c4cc(=O)c5c(O)cc(O)cc5o4)cc(OC)c3O[C@@H]2CO)ccc1O (racemic) [5′-MHC, 5′-methoxyhydnocarpin] | strong increase of accumulation of berberine in the cells | – |
| COc1cc(/C=C/C(=O)[O-])ccc1O.[Na+] [sodium ferulate] | – | improved the hepatic toxicity |
